Legend:
Experiment in all cases: NCI SRB growth inhibition (single dose 10 µM / five-dose)
Format in all cases: cell-based, human
SK-MEL-5 = conditions: Homo sapiens; for inhibition at 10 µM: SK-MEL-5 (Melanoma), read-out: GI%; for GI50: SK-MEL-5, Melanoma, five-dose
Summary of the method: (§1)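 Single-dose screen output reported as mean graph; selected compounds then run at five concentrations. Cells pre-grown 24 h before drug addition, fixed with TCA, and quantified by SRB dye binding.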

NCI-H322M = conditions: Homo sapiens; for inhibition at 10 µM: NCI-H322M (Non-small cell lung cancer), read-out: GI%; for GI50: NCI-H322M, Non-small cell lung cancer, five-dose
Summary of the method: as §1

A498 = conditions: Homo sapiens; for inhibition at 10 µM: A498 (Renal cancer), read-out: GI%; for GI50: A498, Renal cancer, five-dose
Summary of the method: as §1

NCI-H226 = conditions: Homo sapiens; for inhibition at 10 µM: NCI-H226 (Non-small cell lung cancer), read-out: GI%; for GI50: NCI-H226, Non-small cell lung cancer, five-dose
Summary of the method: as §1

OVCAR-3 = conditions: Homo sapiens; for inhibition at 10 µM: OVCAR-3 (Ovarian cancer), read-out: GI%; for GI50: OVCAR-3, Ovarian cancer, five-dose
Summary of the method: as §1

SNB-19 = conditions: Homo sapiens; for inhibition at 10 µM: SNB-19 (CNS cancer), read-out: GI%; for GI50: SNB-19, CNS cancer, five-dose
Summary of the method: as §1

OVCAR-4 = conditions: Homo sapiens; for inhibition at 10 µM: OVCAR-4 (Ovarian cancer), read-out: GI%; for GI50: OVCAR-4, Ovarian cancer, five-dose
Summary of the method: as §1

HOP-92 = conditions: Homo sapiens; for inhibition at 10 µM: HOP-92 (Non-small cell lung cancer), read-out: GI%; for GI50: HOP-92, Non-small cell lung cancer, five-dose
Summary of the method: as §1

ACHN = conditions: Homo sapiens; for inhibition at 10 µM: ACHN (Renal cancer), read-out: GI%; for GI50: ACHN, Renal cancer, five-dose
Summary of the method: as §1

IGROV1 = conditions: Homo sapiens, IGROV-1; for inhibition at 10 µM: IGROV1 (Ovarian cancer), read-out: GI%; for GI50: IGROV1, Ovarian cancer, five-dose
Summary of the method: as §1

T-47D = conditions: Homo sapiens, T47D; for inhibition at 10 µM: T-47D (Breast cancer), read-out: GI%; for GI50: T-47D, Breast cancer, five-dose
Summary of the method: as §1

HOP-62 = conditions: Homo sapiens; for inhibition at 10 µM: HOP-62 (Non-small cell lung cancer), read-out: GI%; for GI50: HOP-62, Non-small cell lung cancer, five-dose
Summary of the method: as §1

COLO 205 = conditions: Homo sapiens; for inhibition at 10 µM: COLO 205 (Colon cancer), read-out: GI%; for GI50: COLO 205, Colon cancer, five-dose
Summary of the method: as §1

HCC-2998 = conditions: Homo sapiens; for inhibition at 10 µM: HCC-2998 (Colon cancer), read-out: GI%; for GI50: HCC-2998, Colon cancer, five-dose
Summary of the method: as §1

RPMI-8226 = conditions: Homo sapiens; for inhibition at 10 µM: RPMI-8226 (Leukemia), read-out: GI%; for GI50: RPMI-8226, Leukemia, five-dose
Summary of the method: as §1

SNB-75 = conditions: Homo sapiens; for inhibition at 10 µM: SNB-75 (CNS cancer), read-out: GI%
Summary of the method: as §1

MALME-3 M = conditions: Homo sapiens; for inhibition at 10 µM: MALME-3 M (Melanoma), read-out: GI%; for GI50: MALME-3 M, Melanoma, five-dose
Summary of the method: as §1

OVCAR-5 = conditions: Homo sapiens; for inhibition at 10 µM: OVCAR-5 (Ovarian cancer), read-out: GI%; for GI50: OVCAR-5, Ovarian cancer, five-dose
Summary of the method: as §1

MOLT-4 = conditions: Homo sapiens; for inhibition at 10 µM: MOLT-4 (Leukemia), read-out: GI%; for GI50: MOLT-4, Leukemia, five-dose
Summary of the method: as §1

SK-MEL-2 = conditions: Homo sapiens; for inhibition at 10 µM: SK-MEL-2 (Melanoma), read-out: GI%
Summary of the method: as §1

NCI/ADR-RES = conditions: Homo sapiens; for inhibition at 10 µM: NCI/ADR-RES (Ovarian cancer), read-out: GI%
Summary of the method: as §1

LOX IMVI = conditions: Homo sapiens; for inhibition at 10 µM: LOX IMVI (Melanoma), read-out: GI%; for GI50: LOX IMVI, Melanoma, five-dose
Summary of the method: as §1

HT29 = conditions: Homo sapiens, HT-29; for inhibition at 10 µM: HT29 (Colon cancer), read-out: GI%; for GI50: HT29, Colon cancer, five-dose
Summary of the method: as §1

HCT-15 = conditions: Homo sapiens; for inhibition at 10 µM: HCT-15 (Colon cancer), read-out: GI%; for GI50: HCT-15, Colon cancer, five-dose
Summary of the method: as §1

UACC-257 = conditions: Homo sapiens; for inhibition at 10 µM: UACC-257 (Melanoma), read-out: GI%; for GI50: UACC-257, Melanoma, five-dose
Summary of the method: as §1

NCI-H23 = conditions: Homo sapiens; for inhibition at 10 µM: NCI-H23 (Non-small cell lung cancer), read-out: GI%; for GI50: NCI-H23, Non-small cell lung cancer, five-dose
Summary of the method: as §1

COc1cccc(C=NNC(=O)c2ccc3[nH]c(-c4ccc(Cl)cc4)nc3c2)c1O [8r, 2-(4-Chlorophenyl)-N'-(2-hydroxy-3-methoxybenzylidene)-1H-benzo[d]imidazole-5-carbohydrazide]
inhibition at 10 µM (SK-MEL-5): > 100%
GI50 (SK-MEL-5): 1340 nM
inhibition at 10 µM (NCI-H322M): > 100%
GI50 (NCI-H322M): 1.59 µM
inhibition at 10 µM (A498): > 100%
GI50 (A498): 12.1 µM
inhibition at 10 µM (NCI-H226): > 100%
GI50 (NCI-H226): 1650 nM
inhibition at 10 µM (OVCAR-3): > 100%
GI50 (OVCAR-3): 560 nM
inhibition at 10 µM (SNB-19): > 100%
GI50 (SNB-19): 1310 nM
inhibition at 10 µM (OVCAR-4): > 100%
GI50 (OVCAR-4): 1410 nM
inhibition at 10 µM (HOP-92): > 100%
GI50 (HOP-92): 1.25 µM
inhibition at 10 µM (ACHN): > 100%
GI50 (ACHN): 2.92 µM
inhibition at 10 µM (IGROV1): > 100%
GI50 (IGROV1): 1.25 µM
inhibition at 10 µM (T-47D): > 100%
GI50 (T-47D): 600 nM
inhibition at 10 µM (HOP-62): > 100%
GI50 (HOP-62): 1040 nM
inhibition at 10 µM (COLO 205): > 100%
GI50 (COLO 205): 2330 nM
inhibition at 10 µM (HCC-2998): > 100%
GI50 (HCC-2998): 1.48 µM
inhibition at 10 µM (RPMI-8226): > 100%
GI50 (RPMI-8226): 2220 nM
inhibition at 10 µM (SNB-75): > 100%
inhibition at 10 µM (MALME-3 M): > 100%
GI50 (MALME-3 M): 1360 nM
inhibition at 10 µM (OVCAR-5): > 100%
GI50 (OVCAR-5): 2.17 µM
inhibition at 10 µM (MOLT-4): > 100%
GI50 (MOLT-4): 630 nM
inhibition at 10 µM (SK-MEL-2): > 100%
inhibition at 10 µM (NCI/ADR-RES): 49.3%
GI50 (NCI/ADR-RES; NCI/ADR-RES, Ovarian cancer, five-dose): > 100 µM
inhibition at 10 µM (LOX IMVI): > 100%
GI50 (LOX IMVI): 1180 nM
inhibition at 10 µM (HT29): > 100%
GI50 (HT29): 4.17 µM
inhibition at 10 µM (HCT-15): 95.2%
GI50 (HCT-15): 2.72 µM
inhibition at 10 µM (UACC-257): > 100%
GI50 (UACC-257): 2.35 µM
inhibition at 10 µM (NCI-H23): > 100%
GI50 (NCI-H23): 1150 nM

COc1ccc(OC)c(C=NNC(=O)c2ccc3[nH]c(-c4ccc(Cl)cc4)nc3c2)c1 [8t, 2-(4-Chlorophenyl)-N'-(2,5-dimethoxybenzylidene)-1H-benzo[d]imidazole-5-carbohydrazide]
inhibition at 10 µM (SK-MEL-5): 68.8%
inhibition at 10 µM (NCI-H322M): 28.9%
inhibition at 10 µM (A498): 56.2%
inhibition at 10 µM (NCI-H226): 35.7%
inhibition at 10 µM (OVCAR-3): 10.8%
inhibition at 10 µM (SNB-19): 45.7%
inhibition at 10 µM (OVCAR-4): 38.9%
inhibition at 10 µM (HOP-92): 36.6%
inhibition at 10 µM (ACHN): 53.1%
inhibition at 10 µM (IGROV1): 7.82%
inhibition at 10 µM (T-47D): 61.8%
inhibition at 10 µM (HOP-62): 18.4%
inhibition at 10 µM (COLO 205): 18.3%
inhibition at 10 µM (HCC-2998): 14.6%
inhibition at 10 µM (RPMI-8226): 62.2%
inhibition at 10 µM (SNB-75): 27.2%
inhibition at 10 µM (MALME-3 M): 18.4%
inhibition at 10 µM (OVCAR-5): < 5%
inhibition at 10 µM (MOLT-4): 58.9%
inhibition at 10 µM (SK-MEL-2): < 5%
inhibition at 10 µM (NCI/ADR-RES): 11.2%
inhibition at 10 µM (LOX IMVI): 34.6%
inhibition at 10 µM (HT29): 20.3%
inhibition at 10 µM (HCT-15): 58.2%
inhibition at 10 µM (UACC-257): < 5%
inhibition at 10 µM (NCI-H23): 33.9%

COc1cc(C=NNC(=O)c2ccc3[nH]c(-c4ccc(Cl)cc4)nc3c2)cc(OC)c1OC [8u, 2-(4-Chlorophenyl)-N'-(3,4,5-trimethoxybenzylidene)-1H-benzo[d]imidazole-5-carbohydrazide]
inhibition at 10 µM (SK-MEL-5): > 100%
GI50 (SK-MEL-5): 2830 nM
inhibition at 10 µM (NCI-H322M): 96.1%
GI50 (NCI-H322M): 8.29 µM
inhibition at 10 µM (A498): > 100%
GI50 (A498): 26.4 µM
inhibition at 10 µM (NCI-H226): > 100%
GI50 (NCI-H226): 1310 nM
inhibition at 10 µM (OVCAR-3): > 100%
GI50 (OVCAR-3): 2280 nM
inhibition at 10 µM (SNB-19): > 100%
GI50 (SNB-19): 3420 nM
inhibition at 10 µM (OVCAR-4): > 100%
GI50 (OVCAR-4): 2350 nM
inhibition at 10 µM (HOP-92): > 100%
GI50 (HOP-92): 5.95 µM
inhibition at 10 µM (ACHN): 69.9%
GI50 (ACHN): 7.93 µM
inhibition at 10 µM (IGROV1): 92.4%
GI50 (IGROV1): 11 µM
inhibition at 10 µM (T-47D): > 100%
GI50 (T-47D): 3480 nM
inhibition at 10 µM (HOP-62): > 100%
GI50 (HOP-62): 4680 nM
inhibition at 10 µM (COLO 205): > 100%
GI50 (COLO 205): 2840 nM
inhibition at 10 µM (HCC-2998): > 100%
GI50 (HCC-2998): 11.1 µM
inhibition at 10 µM (RPMI-8226): > 100%
GI50 (RPMI-8226): 3210 nM
inhibition at 10 µM (SNB-75): > 100%
GI50 (SNB-75; SNB-75, CNS cancer, five-dose): 1280 nM
inhibition at 10 µM (MALME-3 M): > 100%
GI50 (MALME-3 M): 1120 nM
inhibition at 10 µM (OVCAR-5): 37.4%
GI50 (OVCAR-5): 15.6 µM
inhibition at 10 µM (MOLT-4): 96%
GI50 (MOLT-4): 3580 nM
inhibition at 10 µM (SK-MEL-2): > 100%
GI50 (SK-MEL-2; SK-MEL-2, Melanoma, five-dose): 11 µM
inhibition at 10 µM (NCI/ADR-RES): 24.3%
inhibition at 10 µM (LOX IMVI): > 100%
GI50 (LOX IMVI): 4670 nM
inhibition at 10 µM (HT29): > 100%
GI50 (HT29): 2.98 µM
inhibition at 10 µM (HCT-15): 44.3%
GI50 (HCT-15): 73 µM
inhibition at 10 µM (UACC-257): > 100%
GI50 (UACC-257): 4.67 µM
inhibition at 10 µM (NCI-H23): > 100%
GI50 (NCI-H23): 4720 nM
